Results from US7365086B2, “Pramipexole acid addition salts” (Synthon IP Inc., priority 2003, dated 2008).
Structures can show the parent of a compound that is named as a salt.

Assays:
[1] = DVS, 25° C.
Description: The hygroscopicity was measured using a Dynamic Vapor Sorption apparatus or DVS (Surface Measurement Systems Ltd, UK) at 25° C. and at various controlled relative humidity conditions from 0 to 90%.
First the relative humidity was changed from 0% to 60% and back to 0% (cycle 1). Subsequently, the relative humidity was raised by steps of 10% until 90% and reduced with steps of 10% until 0% (cycle 2). Finally, the relative humidity was changed to 60% and back to 0% (cycle 3). At each step the sample was conditioned till constant weight.

[2] = Approximate water solubility of pramipexole acid addition salts (saturation in water, shaken overnight, evaporation and weighing); settings: thermodynamic from solid
Description: In general the acid addition salt was added to 2 ml of water in a test tube (1 ml of water was used for some of the very soluble salts) until a residue remained. The tube was shaken overnight at room temperature. The next morning 1 ml of the clear solution from above the solid residue was removed from the tube. This sample was evaporated and the residue was dried and weighed. In this way the approximate solubility of the salt in the water was determined.

water uptake relative to dry mass at 60% relative humidity ([1]; 60% relative humidity): over 1.2%
total water uptake relative to the dry mass in the step from 70% and 80% relative humidity ([1]; 70% to 80% relative humidity): 5%
solubility [2]: > 300 mg/mL
Structure (SMILES): CCCN[C@H]1CCc2nc(N)sc2C1 [Pramipexole dihydrochloride monohydrate, pramipexole dihydrochloride monohydrate]
